Assay results: patent publication US12533309B2, “Minoxidil adjuvant therapies” (JUPITER WELLNESS, INC., priority 2018, dated 2026)
Where “and” joins values, the source holds several entries; their conditions need not be identical. Identical values can stand only once.

System: sulfotransferase in hair follicles
Test: In-vitro evaluation of sulfotransferase up-regulation in plucked hair follicles
Assay type: cell-based, human
Conditions: for OD 405 (1)-(3), individual replicates / OD 405 Average: 24 h incubation, patient AB-001; for induction of sulfotransferase activity in plucked hair follicles (conclusion): 24 h
Method: The following experiment was conducted to assess the up-regulation of sulfotransferase in hair follicles by candidate compounds know to interact with human nuclear receptors (e.g., PXR and CAR).
Method: For each compound tested, 24 hairs were plucked from a human subject. […] 1 uL of DMSO with no compound was added to control samples. Hairs were allowed to incubate with the candidate compounds for 24 h at room temperature. All samples were run in triplicate, i.e., the data describe in the result section is an average of three samples tested.
After 24 h of incubation hairs were removed from the sample media and washed briefly with clean water. Hairs were trimmed to a length of ˜1 cm and immersed, bulb first, in 100 μL of an assay solution containing 50 mM phosphate buffer (pH8), 5 mM potassium p-nitrophenyl sulfate, 20 μM adenosine 3′,5′-diphosphate, 100 μM minoxidil and 5 mM MgCl2. Hairs were allowed to react with the solution for 24 hours at room temperature. After incubation, hairs were removed and the optical absorbance of the solution at 405 nm was determined with a spectrophotometer using a single scan and 1 cm path length.

[1] = 5 uM, DMSO control average 0.120 (Vitamin K2 run), 0.195 (Hyperforin run)
[2] = 10 uM, DMSO control average 0.120 (Vitamin K2 run), 0.241 (Genistein run)
[3] = 20 uM, DMSO control average 0.120
[4] = 25 uM, DMSO control average 0.241
[5] = 50 uM, DMSO control average 0.241
[6] = 0.2 uM, DMSO control average 0.195
[7] = 1 uM, DMSO control average 0.195

Row | Structure (SMILES) | OD 405 (1)-(3), individual replicates [1] | OD 405 Average [1] | OD 405 (1)-(3), individual replicates [2] | OD 405 Average [2] | OD 405 (1)-(3), individual replicates [3] | OD 405 Average [3] | induction of sulfotransferase activity in plucked hair follicles (conclusion) | OD 405 (1)-(3), individual replicates [4] | OD 405 Average [4] | OD 405 (1)-(3), individual replicates [5] | OD 405 Average [5] | OD 405 (1)-(3), individual replicates [6] | OD 405 Average [6] | OD 405 (1)-(3), individual replicates [7] | OD 405 Average [7]
1 | CC(C)=CCC/C(C)=C/CC/C(C)=C/CC/C(C)=C/CC1=C(C)C(=O)c2ccccc2C1=O [Vitamin K2, vitamin K2] | 0.176 and 0.211 and 0.173 | 0.187 | 0.339 and 0.138 and 0.180 | 0.219 | 0.145 and 0.208 and 0.144 | 0.166 | induced sulfotransferase activity | – | – | – | – | – | – | – | –
2 | O=c1c(-c2ccc(O)cc2)coc2cc(O)cc(O)c12 [Genistein, genistein] | – | – | 0.186 and 0.235 and 0.134 | 0.185 | – | – | induced sulfotransferase activity | 0.179 and 0.144 and 0.085 | 0.136 | 0.122 and 0.080 and 0.190 | 0.131 | – | – | – | –
3 | CC(C)=CCC[C@]1(C)[C@@H](CC=C(C)C)C[C@@]2(CC=C(C)C)C(=O)[C@]1(C(=O)C(C)C)C(=O)C(CC=C(C)C)=C2O [Hyperforin, hyperforin] | 0.523 and 0.506 and 0.489 | 0.506 | – | – | – | – | induced sulfotransferase activity | – | – | – | – | 0.411 and 0.360 and 0.298 | 0.356 | 0.475 and 0.402 and 0.369 | 0.415
